Laboratory results taken from article PMC3392449 (Journal of Immunology (Baltimore, Md. : 1950), 2012).

Legend:
Format in all cases: cell-based, human
[1] = tested on: extract-stimulated PBMC cultures from allergic donors; assay: IL-5 plus IFN-γ ELISPOT of Bla g extract-expanded PBMC; settings: share of the region in the total Bla g peptide response (total SFC)
[2] = tested on: extract-stimulated PBMC cultures from allergic donors (IL-5 production); assay: IL-5 ELISPOT of in vitro expanded PBMC; settings: donor U00023 (Figure 3), result in words
[3] = tested on: extract-stimulated PBMC cultures from allergic donors (IFN-γ production); assay: IFN-γ ELISPOT of in vitro expanded PBMC; settings: donor U00023 (Figure 3), result in words

| Sequence | % Total response [1] | IL-5 response [2] | IFN-γ response [3] |
| --- | --- | --- | --- |
| FAVATITHAAELQRV [Region 5] | 3.5% | no IL-5 | produced IFN-γ |
| GNQNFLTVFDSTSCN [Region 7] | 0.2% | no IL-5 | produced IFN-γ |
| ISDFRAAIANYHYDA [Region 13] | 8.6% | – | – |
| PEQIQLLKKAFDAFD [Region 23] | 5.1% | associated only with IL-5 production | – |
